Legend:
[1] = system: AgORco-expressing CpB/C neurons; assay: Single sensillum recording, capitate peg sensilla, CpB/C neurons; format: in vivo, Anopheles gambiae; conditions: compound delivered via glass recording electrode
Experimental: Single sensillum recordings were performed on 4-7 day old, non-bloodfed Anopheles gambiae females maintained on 10% sucrose and a 12/12 light dark cycle. Legs, wings and antennae were removed from cold-anesthetized females that were then restrained on double-stick tape with thread. A glass reference electrode filled with Sensillar lymph ringers (SLR)(Xu, 2005) was placed in the eye and the recording electrode filled with DMSO or VUAA1 diluted in SLR was used to puncture sensilla at their base. Responses were recorded and digitized using a Syntech IDAC-4 and analyzed with AutoSpike software (Syntech). New glass recording pipettes were used for every recording. Data was sampled at 12 kHz.
The inventors next performed single unit, extracellular electrophysiological recordings on adult female An. gambiae to determine whether VUAA1 could activate AgORco-expressing odorant receptor neurons (ORNs) in vivo. ORNs, which express AgORco and a conventional OR are enclosed within the hair-like sensilla present on olfactory tissues. […] CpA is clearly distinguished from CpB/C by its large action potential amplitude. The action potential amplitudes of CpB and CpC are much smaller and in some preparations indistinguishable from each other; as a result, the spike activity of CpB and CpC neurons were binned for data analysis. […]

[2] = system: Un-transfected HEK293 cells; assay: Whole-cell patch clamp, un-transfected HEK293 control cells; format: cell-based, human
Experimental: Currents from OR-expressing HEK293 cells were amplified with an Axopatch 200b Amplifier (Axon Instruments) and digitized through a Digidata 1322A (Axon Instruments). Electrophysiological data was recorded and analyzed using pCLAMP 10 (Axon Instruments). Electrodes were fabricated from quartz tubing (Sutter Instruments) and pulled to 4-6 MiΩ for whole cell recording. Electrodes were filled with internal solution (120 mM KCl, 30 mM D-glucose, 10 mM HEPES, 2 mM MgCl2, 1.1 mM EGTA, and 0.1 CaCl2) (pH 7.35, 280 mOsm). External (bath) solution contained 130 mM NaCl, 34 mM D-glucose, 10 mM HEPES, 1.5 mM CaCl2), 1.3 mM KH2PO4, and 0.5 MgSO4 (pH 7.35, 300 mOsm). Compounds were diluted in external solution and locally perfused to the recording cell using Perfusion Pencil (Automate Scientific) and controlled by a ValveLink 8.2 controller (Automate Scientific). Whole cell recordings were sampled at 10 kHz and filtered at 5 kHz. Outside-out patches were obtained using 10-15MΩ electrodes pulled from standard glass capillaries (World Precision Instruments) and fire-polished with an MF-830 micro forge (Narishige). Single channel recordings were sampled at 20 kHz. Recordings were reduced to 1 kHz and low-pass filtered at 500 Hz for display and analysis using QuB (SUNY at Buffalo).

[3] = biological target: T1, AgORco+AgOR10 (Anopheles gambiae, UniProt Q7QCC7); assay: Fluo-4 Ca2+ imaging, HEK293 cells expressing Orco+AgOR10; format: cell-based; conditions: AgORco+AgOR10 cells; not seen in control cells
T1 construct: expressed in transfected cells
T1 sequence (Q7QCC7 1-478): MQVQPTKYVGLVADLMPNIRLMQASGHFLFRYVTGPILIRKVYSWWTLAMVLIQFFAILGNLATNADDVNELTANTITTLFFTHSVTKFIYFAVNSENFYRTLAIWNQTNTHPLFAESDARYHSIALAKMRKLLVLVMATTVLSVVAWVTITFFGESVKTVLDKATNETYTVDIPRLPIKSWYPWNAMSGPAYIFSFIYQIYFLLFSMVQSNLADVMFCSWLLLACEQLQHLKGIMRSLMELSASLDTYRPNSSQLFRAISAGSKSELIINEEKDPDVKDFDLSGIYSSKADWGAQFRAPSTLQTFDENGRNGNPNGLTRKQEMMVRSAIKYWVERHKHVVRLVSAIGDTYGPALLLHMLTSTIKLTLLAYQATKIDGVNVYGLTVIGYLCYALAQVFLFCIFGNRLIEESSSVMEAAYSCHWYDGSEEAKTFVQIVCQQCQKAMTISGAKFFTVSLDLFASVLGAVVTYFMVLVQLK
In short: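 Stable Flp-In T-REx 293 lines co-expressing Orco and OR, induced overnight with 0.3 u-g/ul tetracycline, loaded with 1.8 uM Fluo-4 AM plus 2.5 mM probenecid for 45 min at 37 °C. Ca2+ mobilization read after 20 s baseline and compound addition; Max/Min ratios normalized to the maximum responder.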

Compound: CCc1ccc(NC(=O)CSc2nnc(-c3cccnc3)n2CC)cc1 [VUAA1, 2-((4-ethyl-5-(pyridin-3-yl)-4H-1,2,4-triazol-3-yl)thio)-N-(4-ethylphenyl)acetamide]
- spike frequency of CpB/C neurons [1]: increased the spike frequency of CpB/C neurons in a dose-dependent manner
- whole-cell current response [2]: did not respond
- response in plate-based calcium imaging [3]: concentration-dependent responses

— patent publication US11484032B2, “Compositions for inhibition of insect sensing” (Vanderbilt University, priority 2011, dated 2022)
